Experimental data reported in paper PMC6040060, “Identification of a new alanine racemase in Salmonella Enteritidis and its contribution to pathogenesis” (Gut Pathogens, 2018).
Like-named read-outs stand apart in the source and are kept apart here.

Columns and labels:
DadX [1] = tested on: T1, DadX; assay: coupled spectrophotometric assay, NADH at […] nm (L-alanine dehydrogenase); format: biochemical, Salmonella enterica subsp. enterica serovar Enteritidis; conditions: D to L direction; 10 μM PLP, 2.5 mM NAD+, Tris-HCl pH 8.0, 37 °C
T1 construct: pET28a-dadX (NheI/XhoI), N-terminal 6xHis tag, E. coli BL21(DE3) Codon Plus, Ni-NTA purified

SEN3897 [2] = tested on: T2, SEN3897; conditions: read-out: D → L / Km; D to L direction; 10 μM PLP, 2.5 mM NAD+, Tris-HCl pH 8.0, 37 °C
T2 construct: gene alr

DadX [3] = tested on: T1, DadX; assay: coupled spectrophotometric assay, NADH at […] nm (D-amino acid aminotransferase / L-lactate dehydrogenase); format: biochemical, Salmonella enterica subsp. enterica serovar Enteritidis; conditions: L to D direction; 10 μM PLP, Tris-HCl pH 8.0, 37 °C
SEN3897 [4] = tested on: T2, SEN3897; conditions: read-out: L → D / Km; L to D direction; 10 μM PLP, Tris-HCl pH 8.0, 37 °C

| Compound | Km (DadX [1]) [mM] | Km (SEN3897 [2]) [mM] | Km (DadX [3]) [mM] | Km (SEN3897 [4]) [mM] |
| --- | --- | --- | --- | --- |
| C[C@@H](N)C(=O)O [D-alanine] | 52.8 ± 3 | 35 ± 6 | – | – |
| C[C@H](N)C(=O)O [L-alanine] | – | – | 58.9 ± 2.7 | 89.1 ± 10.2 |
